From US4780464A, “(1,2,4)triazolo(4,3-a)quinoxaline-4-amines” (Warner-Lambert Company, priority 1986, dated 1988)

Columns and labels:
adenosine A1 receptor = biological target: T1, adenosine A1 receptor (Rattus norvegicus, UniProt P25099); test: Adenosine Receptor Binding--A1 Receptor Affinity (RBA1), [3H]-CHA, rat whole brain minus cerebellum and brainstem membranes; set-up: species or system rat (male Long-Evans); conditions: 1.0 nM [3H]-CHA, pH 7.7, 25° C., one hour, read-out: RBA-1 (IC50, adenosine A1 receptor affinity)
T1 construct: Whole brain minus cerebellum and brainstem from male Long-Evans rats (150-200 g) is homogenized; from tissue; host or cells: rat whole brain minus cerebellum and brainstem, membranes
T1 sequence (P25099 1-326): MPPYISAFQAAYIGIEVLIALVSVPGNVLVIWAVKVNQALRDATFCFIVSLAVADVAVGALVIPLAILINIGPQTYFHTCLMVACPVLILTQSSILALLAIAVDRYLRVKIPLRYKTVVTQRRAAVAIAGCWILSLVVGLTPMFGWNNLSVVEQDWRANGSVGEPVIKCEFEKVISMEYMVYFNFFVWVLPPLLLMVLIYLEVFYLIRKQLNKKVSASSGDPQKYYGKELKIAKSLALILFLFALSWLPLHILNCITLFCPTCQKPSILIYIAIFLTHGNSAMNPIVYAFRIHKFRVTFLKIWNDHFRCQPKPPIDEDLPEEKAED
Method: Whole brain minus cerebellum and brainstem from male Long-Evans rats (150-200 g) is homogenized in 30 volumes of ice-cold 0.05 M Tris-HCl buffer pH 7.7 using a Brinkman Polytron PT-10, (setting number 6 for 20 seconds) and centrifuged for ten minutes at 20,000×g (Sorvall RC-2), 4° C. The supernatant is discarded, and the pellet is resuspended and centrifuged as before. The pellet is resuspended in 20 ml Tris-HCl buffer containing two International Units/ml of adenosine deaminase (Sigma type III from calf intestinal mucosa), incubated at 37° C. for 30 minutes, then subsequently at 0° C. for ten minutes. The homogenate is again centrifuged, and the final pellet is resuspended in ice-cold 0.05 M Tris-HCl buffer pH 7.7 to a concentration of 20 mg/ml original wet tissue weight and used immediately. […] Incubation volume was 2 ml. […] The filters are rinsed three times with 5 ml of ice-cold 0.05 M Tris-HCl buffer pH 7.7. The radio-labeled ligand retained on the filter is measured by liquid scintillation spectrophotometry after shaking the filters for one hour or longer on a mechanical shaker in 10 ml of Beckman Ready-Solv HP scintillation cocktail. Nonspecific binding is defined as the binding which occurs in the presence of 1 mM theophylline. […] The Scatchard plot is calculated by linear regression of the line obtained by plotting the amount of radioligand bound (pmoles/gram of tissue) versus [formula] Since the amount of radioligand bound is a small fraction of the total amount added, free radioligand is defined as the concentration of (nM) of radioligand added to the incubation mixture. The Hill coefficient is calculated by linear regression of the line obtained by plotting the log of the bound radioligand vs the log of the [formula] The maximal number of binding sites (Bmax) is calculated from the Scatchard plot.

adenosine A2 receptor = biological target: T2, adenosine A2 receptor (Rattus norvegicus, UniProt P30543); test: Adenosine Receptor Binding--A2 Receptor Affinity (RBA2), [3H]NECA, rat striatal membranes; set-up: species or system rat (Sprague-Dawley; Long-Evans hooded); conditions: 4 nM [3H]NECA, 50 nM N6-cyclopentyladenosine, 25° C., 60 min, read-out: RBA-2 (IC50, adenosine A2 receptor affinity)
T2 construct: Brains are thawed and then kept on ice while the striata are dissected out; tissue Pel-Freez (Rogers, Arkansas); host or cells: rat striatum, membranes
T2 sequence (P30543 whole entry): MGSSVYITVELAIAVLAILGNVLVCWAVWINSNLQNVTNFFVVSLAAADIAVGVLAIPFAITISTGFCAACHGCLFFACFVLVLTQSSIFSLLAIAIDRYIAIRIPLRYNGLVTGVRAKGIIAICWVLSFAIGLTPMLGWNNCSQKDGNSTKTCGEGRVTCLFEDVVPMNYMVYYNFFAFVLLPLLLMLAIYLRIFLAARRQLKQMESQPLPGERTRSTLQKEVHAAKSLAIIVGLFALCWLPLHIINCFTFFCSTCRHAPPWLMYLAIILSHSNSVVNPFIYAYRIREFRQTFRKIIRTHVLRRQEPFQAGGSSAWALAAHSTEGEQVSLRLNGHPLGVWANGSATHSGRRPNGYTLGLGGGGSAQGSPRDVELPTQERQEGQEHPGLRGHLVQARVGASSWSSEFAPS
Method: Brains from 200-500 g mixed sex Sprague-Dawley rats are purchased from Pel-Freez (Rogers, Arkansas). Fresh brains from male Long-Evans hooded rats (Blue Spruce Farms, Altamont, NY) give essentially identical results. Brains are thawed and then kept on ice while the striata are dissected out. Striata are disrupted in 10 vol of ice-cold 50 mM Tris.HCl (pH 7.7 at 25° C., pH 8.26 at 5° C.) (Tris) for 30 seconds in a Polytron PT-10 (Brinkman) at setting 5. The suspension is centrifuged at 50,000 xg for ten minutes, the supernatant discarded, the pellet resuspended in 10 vol ice-cold Tris as above, recentrifuged, resuspended at 1 g/5 ml, and stored in plastic vials at -70° C. (stable for at least six months). When needed, tissue is thawed at room temperature, disrupted in a Polytron, and kept on ice until used.
All incubations are for 60 minutes at 25° C. in 12×75 mm glass tubes containing 1 ml Tris with 5 mg original tissue weight of rat weight of rat striatal membranes, 4 nM [^3 H]-N-ethyl adenosine-5'-carboxamide ([^3 H]NECA), 50 nM N6-cyclopentyladenosine (to eliminate A1 receptor binding), 10 mM MgCl2, 0.1 units/ml of adenosine deaminase and 1% dimethylsulfoxide. N6-Cyclopentyladenosine is dissolved at 10 mM in 0.02 N HCl and diluted in Tris. Stock solutions and dilutions of N6-cyclopentyladenosine can be stored at -20° C. for several months. Test compounds are dissolved at 10 mM in dimethylsulfoxide on the same day as the experiment, and diluted in dimethylsulfoxide to 100× the final incubation concentration. […] [^3 H]NECA is diluted to 40 nM in Tris. The membrane suspension (5 mg/0.79 ml) contained sufficient MgCl2 and adenosine deaminase to give 10 mM and 0.1 units/ml, respectively, final concentration in the incubation. […] After all additions, the rack of tubes is vortexed, and the tubes are then incubated for 60 min at 25° C. in a shaking water bath. The rack of tubes is vortexed an additional time halfway through the incubation.
Incubations are terminated by filtration through 2.4 cm GF/B filters under reduced pressure. Each tube is filtered as follows: the contents of the tube are poured on the filter, 4 ml of ice-cold Tris are added to the tube and the contents poured onto the filter, and the filter is washed twice with 4 ml of ice-cold Tris. The filtration is complete in about twelve seconds. Filters are put in scintillation vials, 8 ml of Formula 947 scintillation fluid added, and the vials left overnight, shaken, and counted in a liquid scintillation counter at 40% efficiency.
Nonspecific binding is defined as binding in the presence of 100 μM N6-cyclopentyladenosine, and specific binding is defined as total binding minus nonspecific binding. The IC50 is calculated by weighted nonlinear least squares curve-fitting to the mass-action equation. [formula] where
Weighting factors are calculated under the assumption that the standard deviation was proportional to the predicted value of Y. Nonspecific binding is treated as a very large (infinite) concentration of drug in the computer analysis.

Row | SMILES | IC50 (adenosine A1 receptor) [µM] | IC50 (adenosine A2 receptor) [µM]
1 | c1ccc2c(c1)nc(NC1CCCC1)c1nncn12 [Example 1, N-Cyclopentyl[1,2,4]triazolo[4,3-a]quinoxalin-4-amine] | 0.331 | 7.77
2 | Cc1nnc2c(NC3CCCC3)nc3ccccc3n12 [Example 2, N-cyclopentyl-1-methyl[1,2,4]triazolo[4,3-a]quinoxalin-4-amine] | 0.071 | 6.13
3 | CCc1nnc2c(NC3CCCC3)nc3ccccc3n12 [Example 3, N-Cyclopentyl-1-ethyl[1,2,4]triazolo[4,3-a]quinoxalin-4-amine] | 0.0497 | 2.51
4 | CCCc1nnc2c(NC3CCCC3)nc3ccccc3n12 [Example 4, N-Cyclopentyl-1-propyl[1,2,4]triazolo[4,3-a]quinoxalin-4-amine] | 0.068 | 5.08
5 | CCCCc1nnc2c(NC3CCCC3)nc3ccccc3n12 [Example 5, 1-Butyl-N-cyclopentyl[1,2,4]triazolo[4,3-a]quinoxalin-4-amine] | 0.101 | > 100
6 | CCc1nnc2c(NC3CC3)nc3ccccc3n12 [Example 6, N-Cyclopropyl-1-ethyl[1,2,4]triazolo[4,3-a]quinoxalin-4-amine] | 0.487 | 6.63
7 | CCc1nnc2c(NC3CCC3)nc3ccccc3n12 [Example 7, N-Cyclobutyl-1-ethyl[1,2,4]triazolo[4,3-a]quinoxalin-4-amine] | 0.109 | 2.32

Further lines, results first:

Row | IC50 (adenosine A1 receptor) [µM] | IC50 (adenosine A2 receptor) [µM] | SMILES
8 | 0.074 | 8.69 | CCc1nnc2c(N[C@@H]3C[C@H]4CC[C@@H]3C4)nc3ccccc3n12 (relative stereo) [Example 9, Exo-N-bicyclo[2.2.1]hept-2-yl-1-ethyl[1,2,4]triazolo [4,3-a]quinoxalin-4-amine]
9 | 0.146 | 5.88 | CCc1nnc2c(NC3CCCCC3)nc3ccccc3n12 [Example 8, N-Cyclohexyl-1-ethyl[1,2,4]triazolo[4,3-a]quinoxalin-4-amine]
10 | 0.554 | 40.7 | CCc1nnc2c(NC[C@H](C)O)nc3ccccc3n12 [Example 10, (S)-1-[(1-ethyl[1,2,4]triazolo[4,3-a]quinoxalin-4-yl)amino]-2-propanol]
11 | 0.982 | 20 | CCc1nnc2c(Nc3ccccc3)nc3ccccc3n12 [Example 11, 1-Ethyl-N-phenyl[1,2,4]triazolo[4,3-a]quinoxalin-4-amine]
12 | 0.0125 | 2.08 | FC(F)(F)c1nnc2c(NC3CCCC3)nc3ccccc3n12 [Example 13, N-Cyclopentyl-1-(trifluoromethyl)[1,2,4]triazolo [4,3-a]quinoxalin-4-amine]
